Read-outs that look alike come from different tables or passages of the source.
Assays:
[1] = tested on: 290 distinct kinases tested excluding mutant variants (321 in the larger panel); conditions: no asterisk: panel of 290 distinct kinases
Experimental: Competition binding assays used herein were developed, validated and performed as described in Fabian et al., Nature Biotechnology 2005, 23, 329-336. […] The liganded beads were blocked with excess biotin and washed with blocking buffer (SeaBlock (Pierce), 1% BSA, 0.05% Tween 20, 1 mM DTT) to remove unbound ligand and to reduce non-specific binding. […] Test compounds were prepared as 100× stocks in DMSO and rapidly diluted into the aqueous environment. DMSO was added to control assays lacking a test compound. Primary screen interactions were performed in polypropylene 384-well plates in a final volume of 34 μt, while Kd determinations were performed in polystyrene 96-well plates in a final volume of 135 pt. […] The kinase concentration in the eluates was measured by quantitative PCR. Each kinase was tested individually against each compound. Kds were determined using eleven serial threefold dilutions. A selectivity score, which is a quantitative measure of selectivity of a compound against a panel of enzymes, may be calculated for a compound by dividing the number of enzymes for which a compound meets a set criteria, (for example, a binding constant of 100 nM or less), by the total number of enzymes tested. […] (Note, for those compounds tested in a larger kinase panel, as indicated by an asterisk (*) next to the S35 score, the divisor is 321 (i.e. the larger panel contains 321 distinct kinases, excluding mutant variants.)).

[2] = molecular target: T1, RAF kinases (Homo sapiens, UniProt P15056, V600E); experiment: biochemical
[3] = molecular target: RAF kinases (Homo sapiens, UniProt P04049); experiment: biochemical
[4] = molecular target: RAF kinases (Homo sapiens, UniProt P15056); experiment: biochemical
[5] = tested on: MEK1 phosphorylation in the A375 human melanoma cell line; experiment: cells; conditions: A-375, read-out: pMEK IC50
Experimental: A375 cells (from American Type Culture Collection) were plated at 50,000 cells per well in DMEM (Mediatech) with 10% fetal bovine serum (Omega Scientific) into a 96 well plate and incubated overnight in a 37° C. incubator with 10% CO2. The cells were then washed with PBS and the medium replaced with 0.5% FBS for incubation overnight. […] The cells were incubated with compound or control for two hours at 37° C. The compound solution was aspirated off and the cells washed with cold PBS. […] The plate was centrifuged for 30 minutes to pellet out the cell debris. The cleared lysates were transferred to a 96-well Nunc plate and the ELISA protocol described by the manufacturer in Catalog #KHO0321 or KHO0291 was followed.

[6] = tested on: A375 cells; experiment: cells; conditions: Homo sapiens, A-375, read-out: A375 Viability EC50
[7] = molecular target: T1, RAF kinases; conditions: read-out: BRAF V600E Kd; BRAF V600E

T1 sequence (P15056 whole entry V600E): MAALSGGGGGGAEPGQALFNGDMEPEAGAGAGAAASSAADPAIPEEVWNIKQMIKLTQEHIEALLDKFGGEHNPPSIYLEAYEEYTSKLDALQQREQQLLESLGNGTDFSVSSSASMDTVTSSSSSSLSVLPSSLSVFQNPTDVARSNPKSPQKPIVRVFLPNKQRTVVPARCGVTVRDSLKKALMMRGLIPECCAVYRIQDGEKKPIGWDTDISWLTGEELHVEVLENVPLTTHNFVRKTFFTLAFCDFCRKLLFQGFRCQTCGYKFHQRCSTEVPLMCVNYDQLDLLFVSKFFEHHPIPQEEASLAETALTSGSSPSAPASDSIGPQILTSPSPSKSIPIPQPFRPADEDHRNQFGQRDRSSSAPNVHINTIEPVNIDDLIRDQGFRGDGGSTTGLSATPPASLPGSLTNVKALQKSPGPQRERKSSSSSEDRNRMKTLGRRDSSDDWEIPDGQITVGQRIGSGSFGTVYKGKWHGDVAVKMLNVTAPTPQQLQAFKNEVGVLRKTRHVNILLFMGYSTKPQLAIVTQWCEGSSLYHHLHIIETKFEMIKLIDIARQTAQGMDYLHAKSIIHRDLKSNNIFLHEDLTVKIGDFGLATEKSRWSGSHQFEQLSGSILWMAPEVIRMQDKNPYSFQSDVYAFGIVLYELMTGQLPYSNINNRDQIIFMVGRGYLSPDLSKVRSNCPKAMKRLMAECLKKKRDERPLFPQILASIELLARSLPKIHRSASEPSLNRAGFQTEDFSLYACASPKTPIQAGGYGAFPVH
Chain of RAF kinases (Homo sapiens, UniProt P15056) (P15056 whole entry): as the sequence (P15056 whole entry V600E) above, with E600V counted along it
Chain of RAF kinases (Homo sapiens, UniProt P04049) (P04049 whole entry): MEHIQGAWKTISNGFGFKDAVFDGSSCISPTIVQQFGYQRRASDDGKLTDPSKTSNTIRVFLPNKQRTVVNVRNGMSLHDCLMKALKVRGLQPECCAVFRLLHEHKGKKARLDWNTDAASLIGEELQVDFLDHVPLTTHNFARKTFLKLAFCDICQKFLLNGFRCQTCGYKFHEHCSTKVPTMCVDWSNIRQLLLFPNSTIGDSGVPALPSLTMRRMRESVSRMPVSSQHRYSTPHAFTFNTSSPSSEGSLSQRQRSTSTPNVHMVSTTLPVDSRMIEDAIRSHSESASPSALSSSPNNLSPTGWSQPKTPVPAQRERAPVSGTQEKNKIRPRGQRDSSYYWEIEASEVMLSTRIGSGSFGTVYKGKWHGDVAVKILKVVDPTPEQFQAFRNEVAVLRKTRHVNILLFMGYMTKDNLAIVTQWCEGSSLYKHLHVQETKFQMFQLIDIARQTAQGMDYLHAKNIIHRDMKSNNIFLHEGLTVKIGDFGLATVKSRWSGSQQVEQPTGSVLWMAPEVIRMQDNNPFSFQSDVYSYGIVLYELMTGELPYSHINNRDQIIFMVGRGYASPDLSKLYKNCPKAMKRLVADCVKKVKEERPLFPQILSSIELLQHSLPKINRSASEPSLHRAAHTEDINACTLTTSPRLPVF

Compound | S35 [1] | Kd [2] | Kd [3] | Kd [4] | IC50 [5] | EC50 [6] | Kd [7]
COc1cc2ncnc(Oc3cccc(NC(=O)Nc4cc(C(C)(C)C(F)(F)F)nn4-c4ccccc4)c3)c2cc1OC [Ex 306, 1-(3-(6,7-dimethoxyquinazolin-4-yloxy)phenyl)-3-(1-phenyl-3-(1,1,1-trifluoro-2-methylpropan-2-yl)-1H-pyrazol-5-yl)urea] | D (D > 0.40) | 250 to 500 nM | > 1000 nM | > 1000 nM | < 250 nM | – | –
COc1cc2ncnc(Sc3cccc(NC(=O)Nc4cc(C(C)C)nn4-c4ccccc4)c3)c2cc1OC [Ex 325, 1-(3-(6,7-dimethoxyquinazolin-4-ylthio)phenyl)-3-(3-isopropyl-1-phenyl-1H-pyrazol-5-yl)urea] | C (0.20 < C ≦ 0.40) | – | 250 to 500 nM | 250 to 500 nM | < 250 nM | < 250 nM | < 250 nM
COc1cc2ncnc(Sc3cccc(NC(=O)Nc4cc(C(C)(C)C)nn4-c4ccc(C#N)cc4)c3)c2cc1OC [Ex 329, 1-(3-tert-butyl-1-(4-cyanophenyl)-1H-pyrazol-5-yl)-3-(3-(6,7-dimethoxyquinazolin-4-ylthio)phenyl)urea] | D (D > 0.40) | 250 to 500 nM | 500 to 1000 nM | 250 to 500 nM | < 250 nM | – | –
COc1cc2ncnc(Oc3cccc(NC(=O)Nc4cc(C(C)(C)C)nn4CC(C)C)c3)c2cc1OC [Ex 332, 1-(3-tert-butyl-1-isobutyl-1H-pyrazol-5-yl)-3-(3-(6,7-dimethoxyquinazolin-4-yloxy)phenyl)urea] | C (0.20 < C ≦ 0.40) | – | 250 to 500 nM | 250 to 500 nM | 500 to 1000 nM | > 1000 nM | < 250 nM
COc1cc2ncnc(Oc3cccc(NC(=O)Nc4cc(C(C)(C)C)nn4C(C)C)c3)c2cc1OC [Ex 334, 1-(3-tert-butyl-1-isopropyl-1H-pyrazol-5-yl)-3-(3-(6,7-dimethoxyquinazolin-4-yloxy)phenyl)urea] | C (0.20 < C ≦ 0.40) | – | 250 to 500 nM | 250 to 500 nM | 500 to 1000 nM | 500 to 1000 nM | < 250 nM
COc1cc2ncnc(Sc3cccc(NC(=O)Nc4cc(C(C)(C)C)nn4C(C)C)c3)c2cc1OC [Ex 335, 1-(3-tert-butyl-1-isopropyl-1H-pyrazol-5-yl)-3-(3-(6,7-dimethoxyquinazolin-4-ylthio)phenyl)urea] | C (0.20 < C ≦ 0.40) | – | 250 to 500 nM | 250 to 500 nM | 250 to 500 nM | > 1000 nM | < 250 nM
COc1cc2ncnc(Oc3cccc(NC(=O)Nc4cc(C(F)(F)F)nn4-c4cccc(C)c4)c3)c2cc1OC [Ex 338, 1-(3-(6,7-dimethoxyquinazolin-4-yloxy)phenyl)-3-(1-m-tolyl-3-(trifluoromethyl)-1H-pyrazol-5-yl)urea] | C (0.20 < C ≦ 0.40) | – | 250 to 500 nM | 500 to 1000 nM | < 250 nM | < 250 nM | < 250 nM
COc1cc2ncnc(Sc3cccc(NC(=O)Nc4cc(C(F)(F)F)nn4-c4cccc(C)c4)c3)c2cc1OC [Ex 339, 1-(3-(6,7-dimethoxyquinazolin-4-ylthio)phenyl)-3-(1-m-tolyl-3-(trifluoromethyl)-1H-pyrazol-5-yl)urea] | C (0.20 < C ≦ 0.40) | 250 to 500 nM | 500 to 1000 nM | > 1000 nM | < 250 nM | – | –
COc1cc2ncnc(Oc3cccc(NC(=O)Nc4cc(C5CCC5)nn4-c4ccccc4)c3)c2cc1OC [Ex 355, 1-(3-cyclobutyl-1-phenyl-1H-pyrazol-5-yl)-3-(3-(6,7-dimethoxyquinazolin-4-yloxy)phenyl)urea] | C (0.20 < C ≦ 0.40) | – | 500 to 1000 nM | 500 to 1000 nM | < 250 nM | < 250 nM | < 250 nM
